Test results published in patent publication US20240109903A1, “SUBSTITUTED HETEROCYCLES FOR TREATING CANCER” (Northwestern University, priority 2022, published 2024).
Like-named read-outs stand apart in the source and are kept apart here.

Tests used:
Type in all cases: cell-based
[1] = test system: CCRF-CEM; experiment: NCI 60 five-dose screen CCRF-CEM; details: Homo sapiens; for CC50: read-out: LC50 (the source's name)
[2] = test system: NCI-H23; experiment: NCI 60 five-dose screen NCI-H23; details: Homo sapiens; for CC50: read-out: LC50 (the source's name) (converted)
[3] = test system: COLO 205; experiment: NCI 60 five-dose screen COLO 205; details: Homo sapiens; for CC50: read-out: LC50 (the source's name) (converted)
[4] = test system: HCC-2998; experiment: NCI 60 five-dose screen HCC-2998; details: Homo sapiens; for CC50: read-out: LC50 (the source's name) (converted)
[5] = test system: KM12; experiment: NCI 60 five-dose screen KM12; details: Homo sapiens; for CC50: read-out: LC50 (the source's name) (converted)
[6] = test system: LOX IMVI; experiment: NCI 60 five-dose screen LOX IMVI; details: Homo sapiens; for CC50: read-out: LC50 (the source's name) (converted)
[7] = test system: SK-MEL-2; experiment: NCI 60 five-dose screen SK-MEL-2; details: Homo sapiens; for CC50: read-out: LC50 (the source's name) (converted)
[8] = test system: UACC-257; experiment: NCI 60 five-dose screen UACC-257; details: Homo sapiens; for CC50: read-out: LC50 (the source's name) (converted)
[9] = test system: UACC-62; experiment: NCI 60 five-dose screen UACC-62; details: Homo sapiens; for CC50: read-out: LC50 (the source's name) (converted)
[10] = test system: OVCAR-8; experiment: NCI 60 five-dose screen OVCAR-8; details: Homo sapiens; for CC50: read-out: LC50 (the source's name) (converted)
[11] = test system: NCI/ADR-RES; experiment: NCI 60 five-dose screen NCI/ADR-RES; details: Homo sapiens; for CC50: read-out: LC50 (the source's name) (converted)
[12] = test system: SK-OV-3; experiment: NCI 60 five-dose screen SK-OV-3; details: Homo sapiens; for CC50: read-out: LC50 (the source's name) (converted)
[13] = test system: A498; experiment: NCI 60 five-dose screen A498; details: Homo sapiens; for CC50: read-out: LC50 (the source's name) (converted)
[14] = test system: SN12C; experiment: NCI 60 five-dose screen SN12C; details: Homo sapiens; for CC50: read-out: LC50 (the source's name) (converted)
[15] = test system: UO-31; experiment: NCI 60 five-dose screen UO-31; details: Homo sapiens; for CC50: read-out: LC50 (the source's name) (converted)
[16] = test system: DU-145; experiment: NCI 60 five-dose screen DU-145; details: Homo sapiens; for CC50: read-out: LC50 (the source's name) (converted)
[17] = test system: BT-549; experiment: NCI 60 five-dose screen BT-549; details: Homo sapiens; for CC50: read-out: LC50 (the source's name) (converted)
[18] = test system: MDA-MB-468; experiment: NCI 60 five-dose screen MDA-MB-468; details: Homo sapiens; for CC50: read-out: LC50 (the source's name) (converted)

Structure (SMILES): OC1CCC(Cn2c(C(F)(F)F)cc3c(Cl)ncnc32)CC1 (stereo not drawn) [NUCC-0226689]
- GI50 ([1]; five-dose): 5.62 µM
- IC50 ([1]; five-dose): 9.33 µM
- IC (TGI) ([1]; five-dose): 100 µM
- CC50 ([1]; five-dose): ≥ 100 µM
- GI50 ([2]; five-dose): 3.09 µM
- IC50 ([2]; five-dose): 5.5 µM
- IC (TGI) ([2]; five-dose): 11.5 µM
- CC50 ([2]; five-dose): 45.7 µM
- GI50 ([3]; five-dose): 24.5 µM
- IC50 ([3]; five-dose): 45.7 µM
- IC (TGI) ([3]; five-dose): 100 µM
- CC50 ([3]; five-dose): ≥ 100 µM
- GI50 ([4]; five-dose): 1.78 µM
- IC50 ([4]; five-dose): 3.24 µM
- IC (TGI) ([4]; five-dose): 3.31 µM
- CC50 ([4]; five-dose): 6.17 µM
- GI50 ([5]; five-dose): 26.3 µM
- IC50 ([5]; five-dose): 37.2 µM
- IC (TGI) ([5]; five-dose): 93.3 µM
- CC50 ([5]; five-dose): ≥ 100 µM
- GI50 ([6]; five-dose): 1.7 µM
- IC50 ([6]; five-dose): 3.02 µM
- IC (TGI) ([6]; five-dose): 3.16 µM
- CC50 ([6]; five-dose): 5.75 µM
- GI50 ([7]; five-dose): 13.2 µM
- IC50 ([7]; five-dose): 28.8 µM
- IC (TGI) ([7]; five-dose): 28.2 µM
- CC50 ([7]; five-dose): 58.9 µM
- GI50 ([8]; five-dose): 3.39 µM
- IC50 ([8]; five-dose): 7.76 µM
- IC (TGI) ([8]; five-dose): 14.1 µM
- CC50 ([8]; five-dose): 56.2 µM
- GI50 ([9]; five-dose): 5.37 µM
- IC50 ([9]; five-dose): 11.5 µM
- IC (TGI) ([9]; five-dose): 19.5 µM
- CC50 ([9]; five-dose): 51.3 µM
- GI50 ([10]; five-dose): 2.29 µM
- IC50 ([10]; five-dose): 3.63 µM
- IC (TGI) ([10]; five-dose): 5.37 µM
- CC50 ([10]; five-dose): 30.9 µM
- GI50 ([11]; five-dose): 26.3 µM
- IC50 ([11]; five-dose): 43.7 µM
- IC (TGI) ([11]; five-dose): 100 µM
- CC50 ([11]; five-dose): ≥ 100 µM
- GI50 ([12]; five-dose): 22.4 µM
- IC50 ([12]; five-dose): 67.6 µM
- IC (TGI) ([12]; five-dose): 100 µM
- CC50 ([12]; five-dose): ≥ 100 µM
- GI50 ([13]; five-dose): 100 µM
- IC50 ([13]; five-dose): 100 µM
- IC (TGI) ([13]; five-dose): 100 µM
- CC50 ([13]; five-dose): ≥ 100 µM
- GI50 ([14]; five-dose): 5.37 µM
- IC50 ([14]; five-dose): 10 µM
- IC (TGI) ([14]; five-dose): 20 µM
- CC50 ([14]; five-dose): 53.7 µM
- GI50 ([15]; five-dose): 15.1 µM
- IC50 ([15]; five-dose): 38.9 µM
- IC (TGI) ([15]; five-dose): 66.1 µM
- CC50 ([15]; five-dose): ≥ 100 µM
- GI50 ([16]; five-dose): 7.94 µM
- IC50 ([16]; five-dose): 13.8 µM
- IC (TGI) ([16]; five-dose): 20.4 µM
- CC50 ([16]; five-dose): 46.8 µM
- GI50 ([17]; five-dose): 13.2 µM
- IC50 ([17]; five-dose): 28.2 µM
- IC (TGI) ([17]; five-dose): 28.2 µM
- CC50 ([17]; five-dose): 58.9 µM
- GI50 ([18]; five-dose): 2.14 µM
- IC50 ([18]; five-dose): 7.08 µM
- IC (TGI) ([18]; five-dose): 5.62 µM
- CC50 ([18]; five-dose): 22.4 µM

Structure (SMILES): COc1cc(Cn2c(C(F)(F)F)cc3c(Cl)ncnc32)ccn1 [NUCC-0226694]
- GI50 [1]: 3.16 µM
- IC50 [1]: 5.37 µM
- IC (TGI) [1]: 18.6 µM
- CC50 [1]: ≥ 100 µM
- GI50 [2]: 2.19 µM
- IC50 [2]: 3.98 µM
- IC (TGI) [2]: 4.9 µM
- CC50 [2]: 13.5 µM
- GI50 [3]: 15.1 µM
- IC50 [3]: 26.3 µM
- IC (TGI) [3]: 46.8 µM
- CC50 [3]: ≥ 100 µM
- GI50 [4]: 1.78 µM
- IC50 [4]: 3.16 µM
- IC (TGI) [4]: 3.24 µM
- CC50 [4]: 6.03 µM
- GI50 [5]: 13.5 µM
- IC50 [5]: 22.9 µM
- IC (TGI) [5]: 30.2 µM
- CC50 [5]: 69.2 µM
- GI50 [6]: 1.66 µM
- IC50 [6]: 2.88 µM
- IC (TGI) [6]: 3.16 µM
- CC50 [6]: 6.03 µM
- GI50 [7]: 10 µM
- IC50 [7]: 21.9 µM
- IC (TGI) [7]: 22.4 µM
- CC50 [7]: 51.3 µM
- GI50 [8]: 8.51 µM
- IC50 [8]: 19.5 µM
- IC (TGI) [8]: 21.9 µM
- CC50 [8]: 49 µM
- GI50 [9]: 8.13 µM
- IC50 [9]: 15.8 µM
- IC (TGI) [9]: 20.4 µM
- CC50 [9]: 45.7 µM
- GI50 [10]: 11.5 µM
- IC50 [10]: 19.1 µM
- IC (TGI) [10]: 26.3 µM
- CC50 [10]: 61.7 µM
- GI50 [11]: 15.1 µM
- IC50 [11]: 27.5 µM
- IC (TGI) [11]: 33.9 µM
- CC50 [11]: 74.1 µM
- GI50 [12]: 17 µM
- IC50 [12]: 32.4 µM
- IC (TGI) [12]: 32.4 µM
- CC50 [12]: 61.7 µM
- GI50 [13]: 15.8 µM
- IC50 [13]: 33.1 µM
- IC (TGI) [13]: 30.9 µM
- CC50 [13]: 58.9 µM
- GI50 [14]: 9.12 µM
- IC50 [14]: 15.5 µM
- IC (TGI) [14]: 21.4 µM
- CC50 [14]: 46.8 µM
- GI50 [15]: 8.71 µM
- IC50 [15]: 18.2 µM
- IC (TGI) [15]: 24 µM
- CC50 [15]: 61.7 µM
- GI50 [16]: 1.78 µM
- IC50 [16]: 3.09 µM
- IC (TGI) [16]: 3.24 µM
- CC50 [16]: 5.89 µM
- GI50 [17]: 1.62 µM
- IC50 [17]: 3.24 µM
- IC (TGI) [17]: 3.16 µM
- CC50 [17]: 6.03 µM
- GI50 [18]: 1.78 µM
- IC50 [18]: 3.98 µM
- IC (TGI) [18]: 3.8 µM
- CC50 [18]: 7.94 µM
